Source: US20060069132A1, “Azolecarboxamide herbicides” (priority 2004, published 2006)

Tests used:
bermudagrass = assay: Test C pre-/postemergence herbicide test; type: in vivo, Cynodon dactylon; settings: for Bermudagrass plant response rating: 500 g ai/ha
Procedure, shortened: (§1)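 Preemergence: seeds planted and treated with compound in non-phytotoxic solvent with surfactant; postemergence: plants at 2 to 18 cm (1- to 4-leaf stage) sprayed likewise. Kept in greenhouse 12 to 14 days, then visually rated against controls, 0 (no effect) to 100 (complete control).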

large crabgrass = assay: Test C pre-/postemergence herbicide test; type: in vivo, Digitaria sanguinalis
Procedure, shortened: as §1

morningglory [1] = assay: Test C pre-/postemergence herbicide test; type: in vivo, Ipomoea coccinea; parameters: key to Plant response rating, Morningglory: 0 = no effect, 100 = complete control
Procedure, shortened: as §1

[2] = system: smallflower umbrella sedge; assay: Test C flooded paddy test; type: in vivo, Cyperus difformis; settings: for Plant response rating, Sedge, Umbrella: 500 g ai/ha, visual rating after 12 to 14 days
redroot pigweed = assay: Test A pre-/postemergence herbicide test; type: in vivo, Amaranthus retroflexus
Procedure, shortened: (§2)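 Sandy loam soil given preemergence directed spray; plants at 2 to 10 cm, one- to two-leaf stage, sprayed to runoff postemergence, compounds in non-phytotoxic solvent with surfactant. Injury rated visually versus untreated controls after about ten greenhouse days, 0 (no effect) to 100 (complete control); dash means not tested.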

rice = assay: Test C flooded paddy test; type: in vivo, Oryza sativa; settings: for Plant response rating, Rice: 500 g ai/ha, visual rating after 12 to 14 days
Procedure, shortened: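 Injury scored visually against controls on a 0 (no effect) to 100 (complete control) scale, 12 to 14 days after treatment in greenhouse. Flooded paddy plants treated at 2-leaf stage; postemergence plants at 1- to 4-leaf stage, 2 to 18 cm tall.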

velvetleaf = assay: Test C pre-/postemergence herbicide test; type: in vivo, Abutilon theophrasti
Procedure, shortened: as §1

barnyardgrass = assay: Test A pre-/postemergence herbicide test; type: in vivo, Echinochloa crus-galli
Procedure, shortened: as §2

common ragweed = assay: Test C pre-/postemergence herbicide test; type: in vivo, Ambrosia elatior; parameters: key to Plant response rating, Ragweed: 0 = no effect, 100 = complete control
Procedure, shortened: as §1

lambsquarters = assay: Test C pre-/postemergence herbicide test; type: in vivo, Chenopodium album
Procedure, shortened: as §1

giant foxtail = assay: Test C pre-/postemergence herbicide test; type: in vivo, Setaria faberi
Procedure, shortened: as §1

morningglory [3] = assay: Test A pre-/postemergence herbicide test; type: in vivo, Ipomoea spp.
Procedure, shortened: as §2

[4] = 125 g ai/ha, scale 0 (no effect) to 100 (complete control), visual, 12 to 14 days, preemergence
[5] = 250 g ai/ha, scale 0-100, preemergence
[6] = Preemergence, scale 0 to 100, 0 no effect, 100 complete control
[7] = 62 g ai/ha, preemergence, scale 0 to 100
[8] = 500 g ai/ha, scale 0 to 100 (0 no effect, 100 complete control), visual, 12 to 14 days, preemergence
[9] = 62 g ai/ha, scale 0 to 100 (0 no effect, 100 complete control)
[10] = 125 g ai/ha, scale 0 to 100 (0 no effect, 100 complete control)
[11] = 250 g ai/ha, scale of 0 to 100, 0 is no effect, 100 is complete control
[12] = scale 0 to 100 (0 no effect, 100 complete control)
[13] = Postemergence, 500 g ai/ha, 0 to 100 scale, 0 no effect, 100 complete control
[14] = Postemergence, 2000 g ai/ha, 0 to 100 scale, 0 no effect, 100 complete control
[15] = Preemergence, 2000 g ai/ha, visual rating, 0 to 100 scale (0 no effect, 100 complete control)
[16] = preemergence, 500 g ai/ha, visual injury, 0 to 100 scale (0 no effect, 100 complete control)
[17] = 250 g ai/ha, scale 0 to 100 (0 no effect, 100 complete control), visual, 12 to 14 days, preemergence
[18] = Postemergence, 250 g ai/ha, scale 0 to 100, 0 no effect, 100 complete control
[19] = postemergence, 125 g ai/ha, scale 0 to 100
[20] = postemergence, 62 g ai/ha, scale 0 to 100
[21] = Postemergence, 500 g ai/ha, scale 0 to 100
[22] = Preemergence, 500 g ai/ha, scale 0 to 100, 0 no effect, 100 complete control
[23] = 125 g ai/ha, scale of 0 to 100, 0 is no effect, 100 is complete control
[24] = Preemergence, 500 g ai/ha, visual rating, 0 to 100 scale (0 no effect, 100 complete control)

CCc1nn(C(C)(C)C)cc1C(=O)Nc1cc(C(=O)N(CC)CC)ccc1F [Compound 223]
60: Plant response rating, Morningglory (morningglory [3]; [14])
95: Pigweed plant response rating (redroot pigweed; [16]) | Plant response rating, Lambsquarters (lambsquarters; [7])
85: Plant response rating, Sedge, Umbrella [2, 12]
50: Pigweed plant response rating (redroot pigweed; [13]) | Morningglory plant response rating (morningglory [3]; [13])
90: Pigweed plant response rating (redroot pigweed; [15])
100: Plant response rating, Bermudagrass (bermudagrass; [5]) | Bermudagrass plant response rating (bermudagrass; [6]) | Plant response rating, Crabgrass, Large (large crabgrass; [7]) | Plant response rating, Crabgrass, Large (large crabgrass; [4]) | Plant response rating, Crabgrass, Large (large crabgrass; [5]) | Plant response rating, Crabgrass, Large (large crabgrass; [8]) | Plant response rating, Morningglory (morningglory [1]; [8]) | Plant response rating, Velvetleaf (velvetleaf; [5]) | Plant response rating, Velvetleaf (velvetleaf; [8]) | Plant response rating, Ragweed (common ragweed; [5]) | Plant response rating, Ragweed (common ragweed; [8]) | Plant response rating, Lambsquarters (lambsquarters; [4]) | Plant response rating, Lambsquarters (lambsquarters; [5]) | Plant response rating, Lambsquarters (lambsquarters; [8]) | Plant response rating, Foxtail, Giant (giant foxtail; [5]) | Plant response rating, Foxtail, Giant (giant foxtail; [8])
75: Plant response rating, Rice (rice; [12])
0: Plant response rating, Morningglory (morningglory [1]; [7]) | Plant response rating, Morningglory (morningglory [1]; [4]) | Sedge, Umbrella plant response rating [2, 9] | Sedge, Umbrella plant response rating [2, 10] | Rice plant response rating (rice; [9]) | Rice plant response rating (rice; [10]) | Plant response rating, Velvetleaf (velvetleaf; [7])
10: Barnyardgrass plant response rating (barnyardgrass; [13])
70: Plant response rating, Foxtail, Giant (giant foxtail; [4])
5: Plant response rating, Morningglory (morningglory [1]; [5])
40: Plant response rating, Foxtail, Giant (giant foxtail; [7])
80: Plant response rating, Bermudagrass (bermudagrass; 62 g ai/ha, preemergence, scale 0 to 100, 0 no effect, 100 complete control) | Plant response rating, Bermudagrass (bermudagrass; [4]) | Barnyardgrass plant response rating (barnyardgrass; [15])
45: Rice plant response rating (rice; [11])
65: Sedge, Umbrella plant response rating [2, 11]
35: Morningglory plant response rating (morningglory [3]; [16])
55: Plant response rating, Pigweed (redroot pigweed; [14]) | Plant response rating, Barnyardgrass (barnyardgrass; [14]) | Barnyardgrass plant response rating (barnyardgrass; [16]) | Morningglory plant response rating (morningglory [3]; [15])

CC(=NO)c1cccc(NC(=O)c2cc(C(C)(C)C)nn2CCF)c1 [Compound 115]
40: Plant response rating (0 = no effect, 100 = complete control), Foxtail, Giant (giant foxtail; 62 g ai/ha, preemergence) | Plant response rating, Foxtail, Giant (giant foxtail; [19]) | Plant response rating, Foxtail, Giant (giant foxtail; [20])
35: Morningglory plant response rating (morningglory [3]; [13])
60: Plant response rating, Bermudagrass (bermudagrass; [18]) | Plant response rating, Bermudagrass (bermudagrass; [19]) | Plant response rating, Crabgrass, Large (large crabgrass; [20]) | Plant response rating, Velvetleaf (velvetleaf; [20]) | Plant response rating, Foxtail, Giant (giant foxtail; [18])
100: Plant response rating (0 = no effect, 100 = complete control), Bermudagrass (bermudagrass; 62 g ai/ha, preemergence) | Plant response rating, Bermudagrass (bermudagrass; [4]) | Plant response rating, Bermudagrass (bermudagrass; [17]) | Bermudagrass plant response rating (bermudagrass; Postemergence, scale 0 to 100) | Bermudagrass plant response rating (bermudagrass; [6]) | Plant response rating (0 = no effect, 100 = complete control), Crabgrass, Large (large crabgrass; 62 g ai/ha, preemergence) | Plant response rating, Crabgrass, Large (large crabgrass; [4]) | Plant response rating, Crabgrass, Large (large crabgrass; [17]) | Crabgrass, Large plant response rating (large crabgrass; [22]) | Morningglory plant response rating (morningglory [1]; [21]) | Plant response rating, Pigweed (redroot pigweed; [14]) | Pigweed plant response rating (redroot pigweed; [15]) | Plant response rating, Velvetleaf (velvetleaf; [4]) | Velvetleaf plant response rating (velvetleaf; [22]) | Ragweed plant response rating (common ragweed; [22]) | Plant response rating (0 = no effect, 100 = complete control), Lambsquarters (lambsquarters; 62 g ai/ha, preemergence) | Plant response rating, Lambsquarters (lambsquarters; [4]) | Lambsquarters plant response rating (lambsquarters; [21]) | Plant response rating, Lambsquarters (lambsquarters; [18]) | Lambsquarters plant response rating (lambsquarters; [22]) | Plant response rating, Lambsquarters (lambsquarters; [19]) | Plant response rating, Lambsquarters (lambsquarters; [20]) | Plant response rating, Foxtail, Giant (giant foxtail; [17]) | Foxtail, Giant plant response rating (giant foxtail; [22])
70: Plant response rating, Crabgrass, Large (large crabgrass; [18]) | Plant response rating, Crabgrass, Large (large crabgrass; [19]) | Barnyardgrass plant response rating (barnyardgrass; [13]) | Barnyardgrass plant response rating (barnyardgrass; [24]) | Plant response rating (0 = no effect, 100 = complete control), Ragweed (common ragweed; 62 g ai/ha, preemergence) | Plant response rating, Ragweed (common ragweed; [18]) | Plant response rating, Ragweed (common ragweed; [19]) | Plant response rating, Ragweed (common ragweed; [20]) | Morningglory plant response rating (morningglory [3]; [24])
85: Sedge, Umbrella plant response rating [2, 23] | Barnyardgrass plant response rating (barnyardgrass; [15])
90: Crabgrass, Large plant response rating (large crabgrass; [21]) | Sedge, Umbrella plant response rating [2, 11] | Velvetleaf plant response rating (velvetleaf; [21]) | Plant response rating, Velvetleaf (velvetleaf; [18]) | Plant response rating, Velvetleaf (velvetleaf; [19]) | Ragweed plant response rating (common ragweed; [21]) | Plant response rating, Foxtail, Giant (giant foxtail; [4]) | Morningglory plant response rating (morningglory [3]; [15])
30: Plant response rating, Morningglory (morningglory [1]; [4]) | Plant response rating, Morningglory (morningglory [3]; [14])
55: Rice plant response rating (rice; [9])
95: Plant response rating, Sedge, Umbrella [2, 12] | Pigweed plant response rating (redroot pigweed; [13]) | Pigweed plant response rating (redroot pigweed; [24])
75: Rice plant response rating (rice; [11]) | Plant response rating, Rice (rice; [12])
50: Plant response rating, Morningglory (morningglory [1]; [20])
65: Rice plant response rating (rice; [23])
80: Morningglory plant response rating (morningglory [1]; [22]) | Plant response rating, Morningglory (morningglory [1]; [19]) | Sedge, Umbrella plant response rating [2, 9] | Plant response rating, Barnyardgrass (barnyardgrass; [14]) | Plant response rating, Ragweed (common ragweed; [4]) | Foxtail, Giant plant response rating (giant foxtail; [21])
10: Plant response rating, Bermudagrass (bermudagrass; [20])
